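Tested at 5 concentrations; 48 h exposure; 96-well plates; endpoints linearly interpolated, else capped at highest concentration. TGI: total growth inhibition.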
Key:
Assay in all cases: NCI tumour cell line growth inhibition, 48 h
IGROV1 ovarian = tested on: IGROV1 ovarian
LOX IMVI melanoma = tested on: LOX IMVI melanoma
SR leukemia = tested on: SR leukemia
MALME-3M melanoma = tested on: MALME-3M melanoma
COLO 205 colon = tested on: COLO 205 colon
ACHN renal = tested on: ACHN renal
SK-OV-3 ovarian = tested on: SK-OV-3 ovarian
HCT-116 colon = tested on: HCT-116 colon
HT29 colon = tested on: HT29 colon
NCI/ADR-RES ovarian = tested on: NCI/ADR-RES ovarian
NCI-H522 lung = tested on: NCI-H522 lung

Compound	TGI (IGROV1 ovarian)	TGI (LOX IMVI melanoma)	TGI (SR leukemia)	TGI (MALME-3M melanoma)	TGI (COLO 205 colon)	TGI (ACHN renal)	TGI (SK-OV-3 ovarian)	TGI (HCT-116 colon)	TGI (HT29 colon)	TGI (NCI/ADR-RES ovarian)	TGI (NCI-H522 lung)
Oc1ccc(-c2nc(-c3ccc(F)cc3)c(-c3ccc4ccccc4n3)[nH]2)cc1	26.5 µM	27.9 µM	> 100 µM	28.3 µM	29.7 µM	24.9 µM	30.7 µM	32.4 µM	20.2 µM	20.5 µM	
COc1cc2c(cc1O)C1C(O)C(O)C=C3CCN(C2)C31 (stereo not given)	13.6 µM	8.19 µM	5.67 µM	3.86 µM	3.14 µM	7.87 µM	22.9 µM	2.25 µM	18.9 µM		4.29 µM
CCCC(O)C(NC(=O)CCl)C(=O)O (stereo not given)	> 100 µM	> 100 µM		> 100 µM	> 100 µM		> 100 µM	> 100 µM	> 100 µM	> 100 µM	> 100 µM
COc1cccc2c1C(=O)c1c(O)c3c(c(O)c1C2=O)C[C@@](O)(C(=O)CO)C[C@@H]3OC1CC(N)C(OC)C(C)O1 (stereo not given in full)	16.4 µM	0.181 µM	0.364 µM	0.283 µM	1.94 µM	0.765 µM	4.41 µM	> 100 µM	1.66 µM		0.45 µM
CC(=O)OC1O[C@@H](C(C)(C)O)CC[C@@H]1[C@H]1CC[C@@]2(C)C3=C(CC[C@]12C)[C@@]1(C)C[C@@H](OC(=O)CC(C)(O)CC(=O)O)[C@H](OC(C)=O)C(C)(C)C1CC3 (stereo not given in full)	33.6 µM	32.6 µM	53.2 µM	34.1 µM		32.5 µM	38.7 µM		36.4 µM	33.7 µM	
CCOP(=O)(O)C(C)(C)NC	> 100 µM	> 100 µM		> 100 µM	> 100 µM	> 100 µM	> 100 µM	> 100 µM	> 100 µM	> 100 µM	> 100 µM
O=[N+]([O-])c1cc2c(c3nonc13)OCCCCO2	21.2 µM	12.6 µM		11.9 µM	17.9 µM	19.6 µM	65 µM	3.46 µM	21.1 µM	62.6 µM	17.4 µM
C#CCN(CC#C)C(=O)C(=O)c1c[nH]c2ccc(OC)cc12	> 100 µM	33.6 µM	23.2 µM	32.7 µM	60 µM	65.1 µM	36.5 µM	36.1 µM	25.3 µM	57.7 µM	
CC(C)(C)NC(=O)N1N=C(c2ccccc2)C1c1ccccc1 (stereo not given)	> 100 µM	> 100 µM		45.6 µM	> 100 µM	> 100 µM	> 100 µM	52.8 µM	32.2 µM	> 100 µM	35.5 µM
COc1ccc(C(OC(C)=O)C2C(=C(C#N)C#N)c3ccccc3C2=C(C#N)C#N)cc1 (stereo not given)	> 100 µM	> 100 µM	41 µM			> 100 µM	62.8 µM	> 100 µM	95.1 µM	> 100 µM	> 100 µM
CSc1nncc2[nH]c(C)nc12	> 100 µM	> 100 µM		> 100 µM	> 100 µM	> 100 µM	> 100 µM	> 100 µM	> 100 µM	> 100 µM	> 100 µM
COC(=O)c1c(O)ccc2c1c1c(n2Cc2ccc(Cl)cc2Cl)C(=O)c2ccccc2C1	> 100 µM	61.9 µM	> 100 µM	> 100 µM	> 100 µM		> 100 µM	> 100 µM	> 100 µM	> 100 µM	
COC(=O)C1C=CN(N(C)C)C2=C1C(=O)c1c(O)cccc1C2=O (stereo not given)	5.63 µM			2.93 µM	3.66 µM	12.4 µM	22.7 µM	5.79 µM	3.61 µM	6.47 µM	5.95 µM
COc1cc(/C=C/C(=O)O)ccc1C(=O)OCc1ccccc1	> 100 µM	> 100 µM		> 100 µM	> 100 µM		> 100 µM	> 100 µM	> 100 µM	> 100 µM	> 100 µM
CCOC(=O)c1cc(C2(O)CCN(CC(C)CC)C2=O)c(-c2cc(C)no2)[nH]1 (stereo not given)	> 100 µM	> 100 µM	> 100 µM	> 100 µM	> 100 µM		> 100 µM	> 100 µM	> 100 µM	> 100 µM	
CCc1nc2ccc(N=NN(C)C)cc2[nH]1	> 100 µM			> 100 µM	> 100 µM	> 100 µM		> 100 µM	> 100 µM	> 100 µM	> 100 µM
CN1C(=O)C(CC=O)(C(C)(C)C)c2ccccc21 (stereo not given)		> 100 µM	> 100 µM		> 100 µM	> 100 µM	> 100 µM	> 100 µM		> 100 µM	
CC(C)=CCc1c(O)ccc2ccc(=O)oc12	> 100 µM	> 100 µM		> 100 µM	> 100 µM		> 100 µM	> 100 µM	> 100 µM	> 31.6 µM	> 100 µM
Cc1c(O)c(C)c2c(C)cn(C(=O)C(C)(C)C)c2c1C	42.2 µM	92.2 µM			30.3 µM	35.3 µM	42.8 µM	45.3 µM	42.6 µM	> 100 µM	56.2 µM
CC(CCC#N)(CCC#N)C(=O)CC(O)(C(F)(F)F)C(F)(F)F	29.3 µM	8.14 µM	3.77 µM	12 µM	4.9 µM	20.2 µM	> 100 µM	7.57 µM	28.7 µM	22.7 µM	
CC(C)C[C@H]1[C@@H](OCc2ccccc2)COS(=O)N1[C@H](C)c1ccccc1 (stereo not given in full)	> 100 µM	28.2 µM		48.3 µM	30.4 µM	> 100 µM	78 µM	19 µM	49.3 µM	> 100 µM	30.4 µM
CC(C)(C)c1cc(C(CO)OCCOCCO)cc(C(C)(C)C)c1O (stereo not given)	> 100 µM	> 100 µM		> 100 µM	> 100 µM	> 100 µM	> 100 µM	> 100 µM	> 100 µM	> 100 µM	> 100 µM
